Earlier results as cited in patent US6703367B1, “Methods for treating hot flashes and gynaecomastia” (Praecis Pharmaceuticals Inc., priority 2001, dated 2004).

What was measured:
gynaecomastia = settings: for men in whom gynaecomastia was reduced: middle aged men
hot flashes = settings: for reduce hot flashes to: progestin therapy

## C#C[C@]1(O)CC[C@H]2[C@@H]3CCC4=Cc5oncc5C[C@]4(C)[C@H]3CC[C@@]21C [DANAZOL]
gynaecomastia
  men in whom gynaecomastia was reduced: approximately 70%

## CC(=O)[C@@]1(O)CC[C@H]2[C@@H]3C[C@H](C)C4=CC(=O)CC[C@]4(C)[C@H]3CC[C@@]21C [Medroxyprgesterone]
Hot flashes
  reduce hot flashes to: 75-100%

## CC(=O)O[C@]1(C(C)=O)CC[C@H]2[C@@H]3C=C(C)C4=CC(=O)CC[C@]4(C)[C@H]3CC[C@@]21C [Megestrol acetate]
Hot flashes
  reduce hot flashes to: 25-85%

## CLOMIPHENE
gynaecomastia; in vivo
  effect on gynaecomastia: unsuccessful

## Medthyldopa
Hot flashes; in vivo
  decrease of hot flashes: 30%

## Tamoxifen
gynaecomastia
  men in whom gynaecomastia was reduced: approximately 70%

## clonidine
Hot flashes; oral
  effect on hot flashes, orally administered: varied
Hot flashes; transdermal, hot flashes due to Tamoxifen
  effect on hot flashes, administered transdermally: reduced the frequency and severity of hot flashes
